Laboratory results from patent US20070065428A1, “Early B-cell detection for selecting vaccines” (Pepscan Systems B.V., priority 2004, published 2007).
Several values for one entry are separate records, joined by “and”; a condition that tells them apart may be missing. Equal values may be shown once. Non-standard residues stand in square brackets, D forms with d. No end group written: not given here. *: point of attachment. Biotin = O=C1N[C@H]2[C@H](CS[C@H]2CCCCC(=O)*)N1; pGlu = O=C1CC[C@@H](C(=O)O)N1

Experiments:
GnRH-specific B cells [1] = experiment: Staining of specific B cells with tetramers made from C-term, N-term or middle biotinylated GnRH; assay type: cell-based, mice; conditions: middle- or C-terminally biotinylated GnRH (FIG. 3B)
Description: FIG. 3B: Specific B cells are recognized only by C-term tetramer. Peptide-tetrameric molecules made with different biotinylated GnRH: C-term, N-term, and middle biotinylated peptides.
Tetrameric molecules were produced by mixing equal volumes of C-biotinylated, middle biotinylated or N-biotinylated GnRH at 200 μM (Pepscan Systems) with R-phycoerythrin (PE)-labeled neutravidin at 3.3 μM (PE-NA, Molecular Probes, Eugene, Oreg.), or allophycocyanin (APC)-labeled streptavidin at 6.1 μM (APC-SA, Molecular Probes). Each mixture was incubated at 4° C. for at least 12 hours. Then, tetramers were separated from non-complexed peptide by gel filtration using Bio-Gel P-30 spin columns (Bio-Rad, Hercules, Calif.).
As a further specificity test, we produced tetramers using peptides that were N-, middle-, or C-terminally labeled.

GnRH = conditions: cited from earlier work; for biological effect: peptide conjugated to a carrier protein (Meloen et al., 1994; Oonk et al., 1998); for immunogenicity: peptide conjugated to a carrier protein, resulting in GnRH-neutralizing antibodies (Meloen et al., 1994; Oonk et al., 1998)
GnRH-specific B cells [2] = experiment: Inhibition of GnRH-tetramer staining of specific B cells by pre-incubation with unlabeled GnRH; assay type: cell-based, mice
Description: FIG. 3A: Unlabeled GnRH or Gastrin is able to inhibit the peptide-tetrameric molecule staining of the specific B cells. […] Splenocytes were pre-incubated with unlabeled GnRH or Gastrin, followed by incubation with labeled tetramers and anti-CD19 and anti-CD3 antibodies. Three doses of unlabeled antigens were used: 2 mM, 20 μM and 0.2 μM.
Lymphocytes were preincubated with unlabeled peptide followed by incubation with labeled tetramers, CD19 and CD3e antibodies.

hCG-specific B cells = experiment: Double-tetramer (PE/APC hCG-tetramer) flow cytometry of rat lymphocytes after immunization with CTP-hCG; assay type: in vivo; conditions: rat spleen lymphocytes, days 10 to 12 after one i.p. immunization; hCG-tetramer double-staining; one value per rat (nos. 1-3)
Description: Six eight-week-old rats were used and were treated according to the ethical guidelines of our institutions. Rats (nos. 1, 2, and 3) were immunized intraperitoneally on day 0 with 100 μg C-Terminal Peptide (CTP), which comprises amino acid position 109-145 of hCG, coupled with 300 μg KLH, in Complete Freunds Adjuvant (CFA). The accession number of hCG is p01233, the Swiss prot. entry name is CGHB_HUMAN.
Control rats (nos. 4, 5, and 6) were immunized with KLH in CFA. On days 10 to 12, the animals were sacrificed and spleens were harvested. All animal experiments were performed with permission from the local ethical committee (DEC).
Cell suspensions of splenocytes were obtained by mechanical disruption of the spleens. Lymphocytes were collected using a Ficoll gradient. The resulting single-cell suspensions were stained with hCG-tetramers at optimal dilution. Staining was conducted at 4° C. in two steps. First, cells were stained with the PE-labeled tetramer of hCG for one hour, using the empirically determined optimal concentration. Cells were then washed three times with FACS buffer. Next, cells were stained with the APC-labeled tetramer of hCG and washed again. […]
Lymphocytes were stained with hCG-tetramers. […] Only […] detected as a responder to the immunization based on specific B-cell responses.

## N-term: tetramer of N-biotinylated GnRH with PE-labeled neutravidin or APC-labeled streptavidin (Biotin-QHWSYGLRPG; ends and bridges not checked; also: tetramer with PE-labeled neutravidin or APC-labeled streptavidin; UniProt P01148 24-33, looked up)
GnRH-specific B cells [1]
  detection of specific B cells by the tetramer: Only the C-term peptide was able to detect the specific cells

## dimerized form of pEHWSYkLRPGQHWSYkLRPGC [TDK]
GnRH
  biological effect: full biological effect in all treated animals
  immunogenicity: highly immunogenic

## Unlabeled GnRH: Gonadotrophin-releasing hormone, a decapeptide, used unlabeled as competitor of tetramer staining (QHWSYGLRPG; ends and bridges not checked; UniProt P01148 24-33, looked up)
GnRH-specific B cells [2]; lymphocytes preincubated with unlabeled peptide, then labeled tetramers (FIG. 3A)
  inhibition of tetramer staining, dose dependence: inhibited by inclusion of unlabeled peptide in a dose-dependent manner
GnRH-specific B cells [2]; splenocytes pre-incubated with unlabeled antigen, higher dose of 2 mM, 20 μM and 0.2 μM
  inhibition of peptide-tetramer staining of specific B cells: nearly abolished

## pEHWSYGLRPGQHWSYGLRPGC ([pGlu]HWSYGLRPGQHWSYGLRPGC) [GnRH tandem]
GnRH
  biological effect: full biological effect in all treated animals
  immunogenicity: highly immunogenic

## C-term biotinylated GnRH tetrameric: C-biotinylated GnRH complexed with PE-labeled neutravidin or APC-labeled streptavidin (QHWSYGLRPG-biotin; ends and bridges not checked; also: tetramer with PE-labeled neutravidin or APC-labeled streptavidin; UniProt P01148 24-33, looked up)
GnRH-specific B cells [1]
  detection of specific B cells by the tetramer: able to detect the specific B cells

## middle biotinylated peptides: tetramer of middle biotinylated GnRH with PE-labeled neutravidin or APC-labeled streptavidin (QHWSYGLRPG; ends and bridges not checked; also: middle biotinylated, tetramer with PE-labeled neutravidin or APC-labeled streptavidin; UniProt P01148 24-33, looked up)
GnRH-specific B cells [1]
  detection of specific B cells by the tetramer: Only the C-term peptide was able to detect the specific cells

## CTP-KLH/CFA: C-Terminal Peptide, amino acid position 109-145 of hCG, coupled with KLH, in Complete Freunds Adjuvant (TCDDPRFQDSSSSKAPPPSLPSPSRLPGPSDTPILPQ; also: coupled with KLH, in Complete Freunds Adjuvant; UniProt P0DN86 129-165, looked up, fragment)
hCG-specific B cells
  Pos. B cells per 1 × 10^6 cells in Facs: 61 per 1 × 10^6 cells and 47 per 1 × 10^6 cells and 136 per 1 × 10^6 cells
